In one assay the target is PI3Kalpha (Homo sapiens (Human), UniProt P42336). Description: HTRF PI3K biochemical assay, alpha isoform (selectivity versus delta). To be noted: ratio PI3K-alpha IC50 value/PI3K-delta IC50 value. Background: Time-resolved FRET reads energy transfer from a long-lived donor to a nearby acceptor.
In another assay the target is PI3Kdelta (Homo sapiens (Human), UniProt O00329). Description: HTRF PI3K biochemical assay, delta isoform. Conditions: 0.3 nM enzyme, 100 uM ATP, 50 uM PIP2; form screened (neutral or TFA salt).
Chain of PI3Kdelta (O00329 whole entry, canonical isoform): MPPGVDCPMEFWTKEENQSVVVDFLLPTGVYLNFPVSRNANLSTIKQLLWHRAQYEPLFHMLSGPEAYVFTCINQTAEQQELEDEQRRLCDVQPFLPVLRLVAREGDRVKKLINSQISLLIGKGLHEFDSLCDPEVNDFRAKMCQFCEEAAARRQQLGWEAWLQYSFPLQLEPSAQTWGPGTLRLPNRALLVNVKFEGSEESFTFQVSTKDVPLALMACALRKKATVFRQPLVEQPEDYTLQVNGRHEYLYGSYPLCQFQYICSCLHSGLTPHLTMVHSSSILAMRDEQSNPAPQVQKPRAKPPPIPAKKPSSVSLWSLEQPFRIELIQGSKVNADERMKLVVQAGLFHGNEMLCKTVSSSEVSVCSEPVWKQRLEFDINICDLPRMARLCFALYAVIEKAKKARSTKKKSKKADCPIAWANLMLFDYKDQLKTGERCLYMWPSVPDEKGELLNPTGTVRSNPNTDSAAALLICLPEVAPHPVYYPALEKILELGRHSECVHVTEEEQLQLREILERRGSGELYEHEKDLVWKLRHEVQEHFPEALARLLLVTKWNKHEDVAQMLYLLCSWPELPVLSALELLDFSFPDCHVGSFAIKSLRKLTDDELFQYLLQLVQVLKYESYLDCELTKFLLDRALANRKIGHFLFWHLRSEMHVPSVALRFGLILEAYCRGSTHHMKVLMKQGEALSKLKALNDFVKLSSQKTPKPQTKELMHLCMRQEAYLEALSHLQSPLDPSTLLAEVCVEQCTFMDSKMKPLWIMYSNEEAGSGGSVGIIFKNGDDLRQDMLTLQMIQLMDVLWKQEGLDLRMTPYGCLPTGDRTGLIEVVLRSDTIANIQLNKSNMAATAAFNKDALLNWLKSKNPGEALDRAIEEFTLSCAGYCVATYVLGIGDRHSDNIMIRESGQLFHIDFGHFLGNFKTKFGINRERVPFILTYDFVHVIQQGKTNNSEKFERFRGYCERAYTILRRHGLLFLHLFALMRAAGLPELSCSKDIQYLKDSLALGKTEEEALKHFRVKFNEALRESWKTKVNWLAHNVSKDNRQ
Chain of PI3Kdelta (P27986 whole entry partner, canonical isoform): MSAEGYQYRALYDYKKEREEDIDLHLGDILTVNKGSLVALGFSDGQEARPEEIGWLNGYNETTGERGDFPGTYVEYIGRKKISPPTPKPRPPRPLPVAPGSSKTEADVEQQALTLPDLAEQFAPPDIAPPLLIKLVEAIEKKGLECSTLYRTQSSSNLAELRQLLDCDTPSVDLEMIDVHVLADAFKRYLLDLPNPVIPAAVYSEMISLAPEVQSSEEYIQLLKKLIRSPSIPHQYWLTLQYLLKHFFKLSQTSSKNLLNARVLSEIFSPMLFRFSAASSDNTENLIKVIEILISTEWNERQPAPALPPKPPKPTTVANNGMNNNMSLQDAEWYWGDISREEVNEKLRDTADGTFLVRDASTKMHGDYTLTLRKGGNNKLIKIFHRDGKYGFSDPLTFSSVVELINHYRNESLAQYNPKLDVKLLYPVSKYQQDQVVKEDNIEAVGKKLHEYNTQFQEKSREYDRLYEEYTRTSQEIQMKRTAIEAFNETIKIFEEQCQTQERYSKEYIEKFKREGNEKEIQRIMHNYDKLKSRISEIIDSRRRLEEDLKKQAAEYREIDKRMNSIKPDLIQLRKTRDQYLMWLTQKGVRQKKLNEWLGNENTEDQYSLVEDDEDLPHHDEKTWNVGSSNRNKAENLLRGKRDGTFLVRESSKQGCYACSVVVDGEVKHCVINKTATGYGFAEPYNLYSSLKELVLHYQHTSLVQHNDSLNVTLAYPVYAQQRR

A value given as a limit tells only on which side of the number the result lay.

Chain of PI3Kalpha (P42336 whole entry, canonical isoform): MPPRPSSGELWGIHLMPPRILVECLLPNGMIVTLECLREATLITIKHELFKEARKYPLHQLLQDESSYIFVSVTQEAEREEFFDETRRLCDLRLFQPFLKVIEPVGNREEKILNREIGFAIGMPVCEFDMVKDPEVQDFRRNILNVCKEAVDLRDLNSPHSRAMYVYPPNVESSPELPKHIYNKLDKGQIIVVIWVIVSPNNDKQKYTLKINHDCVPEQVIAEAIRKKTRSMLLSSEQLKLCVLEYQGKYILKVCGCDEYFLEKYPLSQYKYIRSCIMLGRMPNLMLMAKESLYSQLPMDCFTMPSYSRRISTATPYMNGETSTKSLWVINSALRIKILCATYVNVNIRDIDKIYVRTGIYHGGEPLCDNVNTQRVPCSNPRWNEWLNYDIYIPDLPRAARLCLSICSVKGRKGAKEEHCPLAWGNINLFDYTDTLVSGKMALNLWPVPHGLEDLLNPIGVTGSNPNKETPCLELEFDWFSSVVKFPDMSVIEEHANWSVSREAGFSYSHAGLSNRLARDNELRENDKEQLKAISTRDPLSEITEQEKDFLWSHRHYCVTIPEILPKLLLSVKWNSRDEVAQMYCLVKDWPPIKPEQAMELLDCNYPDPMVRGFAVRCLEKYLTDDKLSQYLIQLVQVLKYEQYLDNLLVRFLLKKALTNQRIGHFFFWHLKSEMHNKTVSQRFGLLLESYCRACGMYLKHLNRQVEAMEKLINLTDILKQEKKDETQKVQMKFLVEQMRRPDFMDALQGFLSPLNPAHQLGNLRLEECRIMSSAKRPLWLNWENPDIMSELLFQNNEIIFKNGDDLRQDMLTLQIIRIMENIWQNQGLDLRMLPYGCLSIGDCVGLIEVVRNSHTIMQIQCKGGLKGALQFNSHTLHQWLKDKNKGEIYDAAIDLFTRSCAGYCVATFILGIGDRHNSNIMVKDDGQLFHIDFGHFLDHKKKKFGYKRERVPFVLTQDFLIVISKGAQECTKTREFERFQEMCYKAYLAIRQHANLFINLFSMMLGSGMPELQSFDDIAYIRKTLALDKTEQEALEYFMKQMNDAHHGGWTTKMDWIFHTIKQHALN
Chain of PI3Kalpha (P27986 whole entry partner, canonical isoform): as the sequence (P27986 whole entry partner, canonical isoform) above

The term IC50 denotes the concentration that inhibits the measured activity by half. For the compound `CCn1c(-c2cnc(C)nc2)nc2c(-c3ccc4c(c3)C(C)(CC(C)C)NS4(=O)=O)ncnc21` (single isomer, unassigned) [Compound 4-5, (R or S)-9-ethyl-6-[3-methyl-3-(2-methylpropyl)-1,1-dioxido-2,3-dihydro-1,2-benzisothiazol-5-yl]-8-(2-methylpyrimidin-5-yl)-9H-purine], at PI3Kalpha, the “Relative Selectivity versus PI3Kalpha” value is recorded as greater than 10. Moreover, the concentration for half-maximal inhibition (IC50) on PI3Kdelta was 6 nM.

With `CCn1c(-c2cnc(C)nc2)nc2c(-c3ccc4c(c3)C(C)(CC(C)C)NS4(=O)=O)ncnc21` (single isomer, unassigned) [Compound 4-6, (R or S)-9-ethyl-6-[3-methyl-3-(2-methylpropyl)-1,1-dioxido-2,3-dihydro-1,2-benzisothiazol-5-yl]-8-(2-methylpyrimidin-5-yl)-9H-purine], the “Relative Selectivity versus PI3Kalpha” value on PI3Kalpha is listed as greater than 10. Besides, the 50% inhibitory concentration (IC50) on PI3Kdelta was 55 nM.

As to `CCn1c(-c2cnc(C)nc2)nc2c(-c3ccc4c(c3)C(C)(CC(C)C)NC4=O)ncnc21` (single isomer, unassigned) [Compound 4-7, (R or S)-5-[9-ethyl-8-(2-methylpyrimidin-5-yl)-9H-purin-6-yl]-3-methyl-3-(2-methylpropyl)-2,3-dihydro-1H-isoindol-1-one], the “Relative Selectivity versus PI3Kalpha” value at PI3Kalpha is given as greater than 10. The half-maximal inhibitory concentration (IC50) on PI3Kdelta is 7 nM.

Take `CCn1c(-c2cnc(C)nc2)nc2c(-c3ccc4c(c3)C(C)(CC(C)C)NC4=O)ncnc21` (single isomer, unassigned) [Compound 4-8, (R or S)-5-[9-ethyl-8-(2-methylpyrimidin-5-yl)-9H-purin-6-yl]-3-methyl-3-(2-methylpropyl)-2,3-dihydro-1H-isoindol-1-one]: the “Relative Selectivity versus PI3Kalpha” value on PI3Kalpha is listed as greater than 10. In addition, at PI3Kdelta, the IC50 was found to be 128 nM.

In the case of `CCn1c(-c2cnc(C)nc2)nc2c(-c3ccc4c(c3)C(Cc3ccccc3)NC4=O)ncnc21` (single isomer, unassigned) [Compound 4-9, (R or S)-3-benzyl-5-[9-ethyl-8-(2-methylpyrimidin-5-yl)-9H-purin-6-yl]-2,3-dihydro-1H-isoindol-1-one], the “Relative Selectivity versus PI3Kalpha” value at PI3Kalpha is listed as greater than 10. In addition, on PI3Kdelta, the IC50 was 22 nM.

With `CCn1c(-c2cnc(C)nc2)nc2c(-c3ccc4c(c3)C(C)(Cc3ccccc3)N(C)C4=O)ncnc21` (single isomer, unassigned) [Compound 4-12, (R or S)-3-benzyl-5-[9-ethyl-8-(2-methylpyrimidin-5-yl)-9H-purin-6-yl]-2,3-dimethyl-2,3-dihydro-1H-isoindol-1-one], the “Relative Selectivity versus PI3Kalpha” value on PI3Kalpha was greater than 10. In addition, the 50% inhibitory concentration (IC50) on PI3Kdelta stood at 14 nM.

Turning to `CCn1c(-c2cnc(C)nc2)nc2c(-c3ccc4oc(=O)n(C(C)c5ccccc5)c4c3)ncnc21` (single isomer, unassigned) [Compound 5-1, (R or S)-5-[9-ethyl-8-(2-methylpyrimidin-5-yl)-9H-purin-6-yl]-3-(1-phenylethyl)-1,3-benzoxazol-2(3H)-one], the “Relative Selectivity versus PI3Kalpha” value on PI3Kalpha is reported as greater than 10. The IC50 at PI3Kdelta turned out to be 14 nM.

In the case of `CCn1c(-c2cnc(C)nc2)nc2c(-c3ccc4oc(=O)n(C(C)c5ccccc5)c4c3)ncnc21` (single isomer, unassigned) [Compound 5-2, (R or S)-5-[9-ethyl-8-(2-methylpyrimidin-5-yl)-9H-purin-6-yl]-3-(1-phenylethyl)-1,3-benzoxazol-2(3H)-one], the “Relative Selectivity versus PI3Kalpha” value at PI3Kalpha is greater than 10. The half-inhibitory concentration (IC50) on PI3Kdelta amounted to 37 nM.

As to `CCn1c(-c2cnc(C)nc2)nc2c(-c3ccc4oc(=O)n(C(C)C5CC5)c4c3)ncnc21` (single isomer, unassigned) [Compound 5-5, (R or S)-3-(1-cyclopropylethyl)-5-[9-ethyl-8-(2-methylpyrimidin-5-yl)-9H-purin-6-yl]-1,3-benzoxazol-2(3H)-one], at PI3Kalpha, the “Relative Selectivity versus PI3Kalpha” value was greater than 10. The concentration for half-maximal inhibition (IC50) on PI3Kdelta is 42 nM.

Consider `CCn1c(-c2cnc(C)nc2)nc2c(-c3ccc4oc(=O)n(C(C)C5CC5)c4c3)ncnc21` (single isomer, unassigned) [Compound 5-6, (R or S)-3-(1-cyclopropylethyl)-5-[9-ethyl-8-(2-methylpyrimidin-5-yl)-9H-purin-6-yl]-1,3-benzoxazol-2(3H)-one], for which, on PI3Kalpha, the “Relative Selectivity versus PI3Kalpha” value is listed as greater than 10. Moreover, at PI3Kdelta, the half-maximal inhibitory concentration (IC50) came to 5 nM.

Consider `CCn1c(-c2cnc(C)nc2)nc2c(-c3ccc4[nH]c(=O)n(C(C)C5CC5)c4c3)ncnc21` (single isomer, unassigned) [Compound 5-7, (R or S)-1-(1-cyclopropylethyl)-6-[9-ethyl-8-(2-methylpyrimidin-5-yl)-9H-purin-6-yl]-1,3-dihydro-2H-benzimidazol-2-one], for which the “Relative Selectivity versus PI3Kalpha” value at PI3Kalpha is greater than 10. The half-maximal inhibitory concentration (IC50) on PI3Kdelta came out at 3 nM.

On to `CCn1c(-c2cnc(C)nc2)nc2c(-c3ccc4[nH]c(=O)n(C(C)C5CC5)c4c3)ncnc21` (single isomer, unassigned) [Compound 5-8, (R or S)-1-(1-cyclopropylethyl)-6-[9-ethyl-8-(2-methylpyrimidin-5-yl)-9H-purin-6-yl]-1,3-dihydro-2H-benzimidazol-2-one], for which the “Relative Selectivity versus PI3Kalpha” value at PI3Kalpha is listed as greater than 10. Moreover, at PI3Kdelta, the half-maximal inhibitory concentration (IC50) was found to be 24 nM.

`CCn1c(-c2cnc(C)nc2)nc2c(-c3ccc4oc(=O)n(C5CCOCC5)c4c3)ncnc21` [Compound 5-9, 5-(9-ethyl-8-(2-methylpyrimidin-5-yl)-9H-purin-6-yl)-3-(tetrahydro-2H-pyran-4-yl)benzo[d]oxazol-2(3H)-one]: on PI3Kalpha, the “Relative Selectivity versus PI3Kalpha” value is greater than 10. The IC50 on PI3Kdelta worked out at 151 nM.

These data come from patent publication US10544147B2, “Purine inhibitors of human phosphatidylinositol 3-kinase delta” (MERCK SHARP & DOHME CORP., priority 2016, dated 2020).
